From patent US20210015764A1, “METHODS OF REDUCING INFLAMMATION OF THE DIGESTIVE SYSTEM WITH INHIBITORS OF HIF-2- ALPHA” (Peloton Therapeutics Inc., priority 2018, published 2021)
Where two headings read alike, the source gives them in different places.

Tests used:
786-O-Hif-Luc cells = test: Luciferase assay (HIF responsive element reporter); conditions: 24 h
Experimental: A pool of infected cells were then selected against 2 g/mL of puromycin (P8833, Sigma) for 10 days followed by limited dilution to select single clones.
Each concentration was tested in triplicate. After about 24 hours, luciferase activity was determined using ONE-Glo Luciferase Assay Reagent (E6110, Promega) following the manufacturer's recommended procedure. EC50 were calculated using Dotmatics software.

786-O cells = test: VEGF ELISA assay; type: cell-based; conditions: Homo sapiens, 786-0, VEGF in culture medium
Experimental: Each concentration was plated in duplicate. About 20 hours later, medium was removed by suction and each well was supplied with 180 μL of growth medium. About 20 μl freshly-made 10× compound stocks were added to each well. […] The EC50 was calculated by GraphPad Prism using the dose-response-inhibition (four parameter) equation. The cell-seeded plate was then subjected to CellTiter-Glo luminescence cell viability assay (Promega) by adding 50 μL of Celltiter Glo reagent into each well and shaking the plate for 8 minutes at 550 rpm (Thermomixer R, Eppendorf) then the luminescence signal immediately read in a plate reader (3 second delay, 0.5 second/well integration time, Synergy 2 multi Detection Microplate reader).

DSS induced colitis = test: DSS-induced model of colitis, two DSS cycles (Example 12); type: in vivo; conditions: female C57BI6 mice, Compound 231 60 mg/kg BID, filgotinib 30 mg/kg QD; for colon length: day 27
Experimental: 6-8 week old female C57BI6 mice were tagged and weighed, then treated with 2% dextran sulfate sodium (DSS) for 6 days. A 2 week recovery phase of regular water was completed over days 7-19. […] Mice were monitored daily and scored for body weight loss, stool consistency/diarrhea, and blood in the feces/rectum. The disease activity index was calculated according to Table 4. The second DSS cycle and treatment regimen continued for 7 days, and then on day 27 the animals were sacrificed. Colons were harvested and the texture, appearance and length of the colons assessed. Colon tissues were prepared for H&E histology, immune gene expression analysis, and immune phenotyping of immune cell infiltrate by flow cytometry. [table]

[1] = target: T1, HIF-2α HIS TAG-PASB Domain (Homo sapiens, UniProt Q99814); test: HIF-2α Scintillation Proximity Assay (SPA); type: binding
T1 construct: 100 nM HIF-2α HIS TAG-PASB Domain
T1 sequence (Q99814 240-350 limits assumed): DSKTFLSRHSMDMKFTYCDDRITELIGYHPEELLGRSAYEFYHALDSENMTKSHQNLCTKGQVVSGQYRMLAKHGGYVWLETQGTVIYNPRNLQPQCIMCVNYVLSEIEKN
Experimental: The total assay volume was about 100 μL in the following configuration: 2 μL compound in 100% DMSO, 88 μL buffer with protein and probe and 10 μL of SPA beads. […] The percent inhibition was determined and IC50 values were calculated using the Dotmatics system based on the following equation: % inhibition=[(high control−sample)/(high control−low control)]×100.

[2] = read-out: Mean Luciferase EC50 (nM)
[3] = probe displacement from HIF-2α PAS-B domain, read-out: Scintillation Proximity Assay IC50
[4] = read-out: Mean Luciferase EC50 (nM), 786-O-Hif-Luc cells, about 24 hours

| EC50 (786-O-Hif-Luc cells; [2]) [nM] | SMILES | further results |
| --- | --- | --- |
| 50 to 249 | N#Cc1cc(F)cc(Oc2ccc(S(=O)(=O)C(F)(F)F)c3c2CC(F)(F)[C@H]3N)c1 [Compound 290] |  |
| 250 to 1000 | CS(=O)(=O)c1ccc(Oc2cc(F)cc(C#N)c2)c2c1[C@H](O)[C@@H](F)C2 [Compound 271] |  |
| > 1000 | N#Cc1cc(F)cc(Oc2ccc(S(=O)(=O)C(F)(F)F)c3c2CCC3O)c1 (stereo not shown) [Compound 258] |  |
| 250 to 1000 | N#Cc1cc(F)cc(Oc2ccc(S(N)(=O)=O)c3c2[C@H](F)C(F)(F)[C@H]3O)c1 [Compound 339] |  |
| < 50 | N#Cc1cc(F)cc(Oc2ccc(S(N)(=O)=O)c3c2[C@@H](F)C(F)(F)[C@H]3O)c1 [Compound 338] |  |
| < 50 | NS(=O)(=O)c1ccc(Oc2cc(F)cc(F)c2)c2c1[C@H](O)C(F)(F)C2 [Compound 256] |  |

Further lines, the compound ahead of its results:

| SMILES | EC50 (786-O-Hif-Luc cells; [2]) [nM] | further results |
| --- | --- | --- |
| N#Cc1cc(Cl)cc(Oc2ccc(S(=O)(=O)CF)c3c2CC(F)(F)[C@H]3O)c1 [Compound 167] | < 50 |  |
| O=S(=O)(c1ccc(Oc2cc(F)cc(Cl)c2)c(Cl)c1CO)C(F)F [Compound 41] | 250 to 1000 | EC50 (786-O cells): 250 to 1000 nM |
| O=S(=O)(c1ccc(Oc2cc(F)cc(Cl)c2)c2c1[C@H](O)CC2)C(F)F [Compound 1] |  | EC50 (786-O cells): 250 to 1000 nM |
| N#Cc1cncc(Oc2ccc(S(=O)(=O)C(F)(F)F)c3c2CC(F)(F)[C@H]3O)c1 [Compound 235] | < 50 |  |
| CNS(=O)(=O)c1ccc(Oc2cc(F)cc(C#N)c2)c2c1[C@H](O)C(F)(F)C2 [Compound 254] | 50 to 249 |  |
| CS(=O)(=O)c1ccc(Oc2cc(F)cc(C#N)c2)c2c1[C@H](O)[C@H](F)C2 [Compound 231] | < 50 | colon length (DSS induced colitis): greatest improvement in colon length |
| N#Cc1cc(F)cc(-c2cnc(C(F)(F)F)c3c2C[C@@H](F)[C@H]3O)c1 [Compound 471] |  | IC50 [1, 3]: 250 to 1000 nM |
| CS(=O)(=O)c1ccc(Oc2cc(Cl)cc(C#N)c2)c2c1[C@H](O)C(F)(F)C2 [Compound 234] | < 50 | EC50 (786-O cells): 50 to 249 nM |
| N#Cc1cc(F)cc(Oc2ccc(S(=O)(=O)C(F)F)c3c2CC[C@H]3O)c1 [Compound 155] | 50 to 249 | EC50 (786-O cells): 50 to 249 nM |
| N#Cc1cc(F)cc(Oc2ccc3c(c2Br)C(N)C(F)(F)S3(=O)=O)c1 (stereo not shown) [Compound 376] |  | IC50 [1, 3]: < 50 nM; EC50 (786-O-Hif-Luc cells; [4]): > 1000 nM |
| CS(=O)(=O)c1ccc(Oc2cc(F)cc(C#N)c2)c2c1C(O)C(F)(F)C2 (stereo not shown) [Compound 223] | 50 to 249 |  |
| N#Cc1cc(F)cc(Oc2ccc(S(N)(=O)=O)c3c2CC(F)(F)[C@H]3O)c1 [Compound 252] | 50 to 249 |  |
| CC(C)(C)OC(=O)NC1CC(Oc2ccc(S(=O)(=O)C(F)(F)F)c3c2CC(F)(F)[C@H]3O)C1 (stereo partly shown) [Compound 722] |  | EC50 (786-O-Hif-Luc cells; [4]): > 1000 nM |
| C[C@H]1C[C@@H](O)c2c(S(=O)(=O)C(F)F)ccc(Oc3cc(F)cc(Cl)c3)c21 [Compound 7a] | 250 to 1000 |  |
| N#Cc1cccc(Oc2ccc(S(=O)(=O)C(F)F)c3c2CC[C@H]3O)c1 [Compound 156] | 250 to 1000 |  |
| N#Cc1cc(F)cc(Oc2ccc(S(=O)(=O)C(F)(F)F)c3c2C[C@@H](F)[C@H]3O)c1 [Compound 227] |  | EC50 (786-O-Hif-Luc cells; [4]): < 50 nM |
| CS(=O)(=O)c1ccc(Oc2cc(F)cc(C#N)c2)c2c1[C@@H](O)C(F)(F)C2 [Compound 226] | > 1000 |  |
| N#Cc1cc(F)cc(Oc2ccc(S(=O)(=O)C(F)F)c3c2CCC3O)c1 (stereo not shown) [Compound 78] |  | EC50 (786-O cells): 250 to 1000 nM |
| O=S(=O)(c1ccc(OC2CC(O)C2)c2c1[C@H](O)C(F)(F)C2)C(F)(F)F (stereo partly shown) [Compound 644] |  | EC50 (786-O-Hif-Luc cells; [4]): 250 to 1000 nM |
| O=S(=O)(c1ccc(OC2CCOCC2)c2c1[C@@H](O)C(F)(F)C2)C(F)F [Compound 782] |  | IC50 [1, 3]: 50 to 249 nM; EC50 (786-O-Hif-Luc cells; [4]): 50 to 249 nM |

| SMILES | EC50 (786-O-Hif-Luc cells; [2]) [nM] | further results |
| --- | --- | --- |
| CS(=O)(=O)c1ccc(Oc2cc(F)cc(C#N)c2)c2c1[C@H](O)C(F)(F)C2 [Compound 163, (S)-3-((2,2-difluoro-1-hydroxy-7-(methylsulfonyl)-2,3-dihydro-1H-inden-4-yl)oxy)-5-fluorobenzonitrile] | < 50 |  |
| O=C1CCC(Oc2ccc(S(=O)(=O)C(F)(F)F)c3c2CC(F)(F)[C@H]3O)CN1 (stereo partly shown) [Compound 719] |  | IC50 [1, 3]: > 1000 nM |
| CS(=O)(=O)c1ccc(Oc2cc(F)cc(C#N)c2)c2c1[C@H](O)[C@H](F)[C@@H]2F [Compound 289, 3-[(1S,2S,3R)-2,3-difluoro-1-hydroxy-7-methylsulfonyl-indan-4-yl]oxy-5-fluoro-benzonitrile] | < 50 |  |
| O=S(=O)(c1ccc(Oc2cc(F)cc(Cl)c2)c2c1C(O)CC2)C(F)F (stereo not shown) [Compound 17] |  | EC50 (786-O cells): 50 to 249 nM |
| CCS(=O)(=O)c1ccc(Oc2cc(F)cc(C#N)c2)c2c1[C@H](O)C(F)(F)C2 [Compound 206] | 50 to 249 |  |
| [2H]C([2H])([2H])S(=O)(=O)c1ccc(Oc2cc(F)cc(C#N)c2)c2c1[C@]([2H])(O)C(F)(F)C2 [Compound 229] | < 50 |  |
| CS(=O)(=O)c1ccc(Oc2cc(F)cc(C#N)c2)c2c1C(O)C(F)C2 (stereo not shown) [Compound 232] | < 50 |  |
| O=S1(=O)c2ccc(OC3CCOCC3)c(C(F)F)c2C(O)C1(F)F (stereo not shown) [Compound 400] |  | IC50 [1, 3]: > 1000 nM; EC50 (786-O-Hif-Luc cells; [4]): > 1000 nM |
| CCCNc1ccc(S(=O)(=O)C(F)F)c2c1CC(F)(F)[C@H]2O [Compound 532] |  | IC50 [1, 3]: < 50 nM; EC50 (786-O-Hif-Luc cells; [4]): 250 to 1000 nM |
| COCc1c(S(=O)(=O)C(F)F)ccc(Oc2cc(F)cc(Cl)c2)c1Cl [Compound 44] |  | IC50 [1]: > 1000 nM |
| CS(=O)(=O)c1ccc(Oc2cc(F)cc(C#N)c2)c2c1[C@H](N)C(F)(F)C2 [Compound 165] | 50 to 249 |  |
| N#Cc1ccc(Oc2cc(F)cc(F)c2)c2c1[C@H](O)C(F)(F)C2 [Compound 67] |  | EC50 (786-O cells): 50 to 249 nM |
| O=S(=O)(c1ccc(OC2=CC=CN3CC=NC23)c2c1C(O)C(F)(F)C2)C(F)(F)F (stereo not shown) [Compound 246] |  | IC50 [1, 3]: > 1000 nM |
| O=S(=O)(c1ccc(Oc2cc(F)cc(Cl)c2)c(C(F)F)c1)C(F)(F)F [Compound 124] | 250 to 1000 | EC50 (786-O cells): 250 to 1000 nM |
| N#Cc1cc(F)cc(Oc2ccc(S(=O)(=O)C(F)(F)F)c3c2CC[C@H]3O)c1 [Compound 57] | 50 to 249 |  |
| O=S(=O)(c1ccc(Oc2cc(F)cc(Cl)c2)c2c1[C@H](O)C[C@@H]2CO)C(F)(F)F [Compound 281] |  | IC50 [1, 3]: 250 to 1000 nM |
| CNS(=O)(=O)c1ccc(Oc2cc(F)cc(F)c2)c2c1[C@H](O)C(F)(F)C2 [Compound 251] | 50 to 249 |  |
| O=C(Nc1nc2cccc(-c3ccc(CN4CCS(=O)(=O)CC4)cc3)n2n1)C1CC1 [filgotinib] |  | colon length (DSS induced colitis): This effect was reversed; disease activity index score (DSS induced colitis; second DSS cycle ([…] DSS, 7 days), vehicle group 6-7): slight decrease in the disease activity index, but only in the later stage of the disease progression |
| [2H][C@]1(O)c2c(S(C)(=O)=O)ccc(Oc3cc(F)cc(C#N)c3)c2CC1(F)F [Compound 247] | < 50 |  |
